Measured values from patent US20050209336A1, “EP2 receptor agonists” (priority 2003, published 2005).
pEC50: −log10 of the molar value. Like-named read-outs stand apart in the source and are kept apart here.

What was measured:
human EP3 receptor = molecular target: T1, human EP3 receptor (Homo sapiens, UniProt P43115); assay: Radioligand ([3H]PGE2) competition displacement binding, human EP3 receptor membranes; conditions: [3H]PGE2 displacement, read-out: pKi EP3 (converted)
T1 construct: expressed in transfected cells
T1 sequence (P43115 1-390): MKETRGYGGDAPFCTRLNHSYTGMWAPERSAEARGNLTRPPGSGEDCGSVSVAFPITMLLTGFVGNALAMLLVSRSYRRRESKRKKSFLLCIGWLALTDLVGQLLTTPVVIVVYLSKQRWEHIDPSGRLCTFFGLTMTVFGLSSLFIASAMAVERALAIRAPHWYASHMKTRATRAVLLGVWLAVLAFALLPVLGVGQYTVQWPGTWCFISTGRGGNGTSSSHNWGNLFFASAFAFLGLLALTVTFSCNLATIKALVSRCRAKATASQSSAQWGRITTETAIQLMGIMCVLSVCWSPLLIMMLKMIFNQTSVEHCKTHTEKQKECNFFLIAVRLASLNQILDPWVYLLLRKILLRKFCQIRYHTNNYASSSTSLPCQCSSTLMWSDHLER
Procedure: Membranes were prepared from cells stably transfected with human EP receptor cDNA. In brief, cells were cultured to confluency, scraped from culture flasks, and centrifuged (800 g, 8 minutes, 4° C.). Cells were twice washed in ice cold homogenisation buffer containing 10 mMTris-HCl, 1 mM EDTA.2Na, 250 mM sucrose, 1 mM PMSF, 0.3 mM indomethacin, pH 7.4, homogenised and re-centrifuged as before. The supernatant was stored on ice and pellets re-homogenised and re-spun. Supernatants were pooled and centrifuged at 40000 g, 10 minutes, 4° C. Resultant membrane pellets were stored at −80° C. until use.
For assay, membranes expressing human EP4, EP3, EP2 or EP1 receptors were incubated in Millipore (MHVBN45) plates containing assay buffer, radiolabelled [^3H]PGE2 and 0.1 to 10 000 nM concentrations of compounds. Incubations were performed at suitable temperatures and for suitable times to allow equilibrium to be reached. Non-specific binding was determined in the presence of 10 uM PGE2. Bound and free radiolabel was separated by vacuum manifold filtration using appropriate wash buffers, and bound radiolabel was determined by scintillation counting. Constituents of each of the buffers are included in table 4 below.
The affinity or pKi of each compound for each receptor was calculated from the concentration causing 50% radioligand displacement (IC50) using the Cheng-Prusoff equation: [formula]
This approach follows that set out in Kenakin, T. P., Pharmacologic analysis of drug receptor interaction. Raven Press, New York, 2nd edition.

[1] = system: human myometrial smooth muscle; assay: Human myometrial activity: inhibition of electrical field stimulation (EFS) induced contractions; assay type: cell-based; conditions: for maximum inhibitory effect: inhibition of EFS-induced contractions / pEC50: human myometrium strips; for effect on electrically-induced (EFS-evoked) contractions: human myometrium, 10^-6 to 10^-4 M (FIG. 6), 1x10^-7 to 1x10^-4 M; for pEC50: inhibition of EFS-evoked response
Procedure: The following describes an in vitro functional assay, using human myometrial smooth muscle, to determine the affinity of the test compounds at the EP2 receptor in human tissues.
Sections of human myometrium were prepared from samples of surgically removed uterus longitudinal myometrial muscle strips (2 mm wide by 10 mm long) were then cut and suspended between stainless steel hooks in organ chambers containing oxygenated (95% O2/5% CO2) Krebs solution at 37° C. The composition of the Krebs solution was as follows: NaCl (118.2 mM), KCl (4.69 mM), MgSO4.7H2O (1.18 mM), KH2PO4 (1.19 mM), glucose (11.1 mM), NaHCO3 (25.0 mM), CaCl2.6H2O (2.5 mM), indomethacin 3×10^−6M.
Tissues were placed under a tension equivalent to 25 mN and left overnight at room temperature. The following day the tissues were maintained at 37° C., washed and placed under a tension of 15 mN then allowed to equilibrate for a period of at least 30 minutes. Responses were recorded using isometric transducers coupled to an Apple Macintosh computer via a MacLab interface. After 60 minutes, the muscle sections of the human myometrium were stimulated electrically (15 ms pulse width, for 10 s every 100 s at 15V and 0.5-40 Hz) using parallel platinum wire electrodes and a Multistim D330 pulse stimulator. Upon electrical stimulation, the strips of human myometrial smooth muscle responded with a rapid contraction. Once the response to electrical stimulation had stabilised (stimulated responses differed by no more than 10%), the strips were exposed to increasing concentrations of test compounds (1×10^−7 to 1×10^−4M, incubated for at least 15 minutes at each concentration). At the end of the experiment, application of sodium nitroprusside (SNP, a nitric oxide donor that causes smooth muscle relaxation) (1×10^−4M) was used to produce a standard relaxatory response. To determine the affinity of the compounds, the concentration of test compound required to produce half-maximal effects (EC50) was calculated, as was the maximum response (calculated as a percentage of the standard response produced with SNP).

[2] = system: TNFα production by LPS-stimulated monocytes; assay: Monocyte assay: LPS-induced TNFα secretion; assay type: cell-based; conditions: Homo sapiens, inhibition of TNFα production, LPS 100 ng/ml, 24 h, mean of three donors; for pEC50: read-out: Mean EC50; for EC50: log scale, read-out: Mean Log (EC50) (converted)
Description: Monocytes are peripheral mononuclear phagocytes that participate in inflammatory responses. TNFα production by monocytes plays an important role in inflammatory responses and can cause considerable tissue damage if the level remained unchecked. Inhibition of TNFα secretion by activated monocytes may provide an attractive therapy for the treatment of inflammatory conditions.
A 96 well in vitro assay was established to determine the effects of test compounds on LPS-induced TNFα secretion by human peripheral blood monocytes. The level of TNFα in assay supernatants was quantified using a standard sandwich ELISA.
Human peripheral blood mononuclear cells from healthy volunteers were isolated from whole blood by Ficoll-Hypaque density centrifugation and adherence to plastic. The non-adherent lymphocyte fraction was used to set up the lymphocyte assay and the adherent monocytes were then recovered by scraping and subsequently used in the monocyte assay.
For the monocyte assay, the cells were plated onto 96-well plates and pre-treated for 1 hour at 37° C./5% CO2 with the test compound (Peak 1, mixture 1 acid; Peak 1, mixture 2 acid; AH-13205 racemate), followed by the addition of LPS (100 ng/ml) to initiate the reaction. The plate was incubated for 24 hours and supernatants were recovered for the measurement of TNFα production by ELISA.

Ki (human EP3 receptor) [µM]	pEC50 [1]	pEC50 [2]	EC50 [2] [µM]	SMILES	maximum inhibitory effect: inhibition of EFS-induced contractions [1] [%]	effect on electrically-induced (EFS-evoked) contractions [1]	effect on electrically-induced (EFS-evoked) contractions ([1]; listed as AH-13205)
6.31	5.30	4.70	19.8	CCCCCC(O)c1ccc(C2CCC(=O)C2CCCCCCC(=O)O)cc1 (racemic) [AH13205, (±)-trans-2-[4-(1-hydroxyhexyl)phenyl]-5-oxo-cyclopentaneheptanoic acid, reference compound]	49±5	concentration-dependent inhibition	inhibit electrically-induced contractions
2	5.90	5.75	1.78	CCCCC[C@H](O)c1ccc([C@H]2CCC(=O)[C@@H]2CCCCCCC(=O)O)cc1 (single isomer, unassigned) [Peak 1, Mixture 1 acid]	56±5	concentration-dependent inhibition	
15.8	5.30	5.17	6.73	CCCCC[C@@H](O)c1ccc([C@H]2CCC(=O)[C@@H]2CCCCCCC(=O)O)cc1 (single isomer, unassigned) [Peak 1, Mixture 2 acid]	57±2	concentration-dependent inhibition	
